Source: PubChem BioAssay (NCI)
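Step 1: Grow cells in 96-well plates. Step 2: Expose to compound for 48 hours at 5 concentrations. Step 3: Interpolate endpoints linearly; if unreached, use highest concentration. GI50 is the concentration that inhibits growth by half. The concentration for full growth arrest is given as TGI.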

Key:
Test in all cases: NCI-60 cell line screen, 48 h
MDA-MB-435 = tested on: MDA-MB-435
SN12C renal = tested on: SN12C renal
NCI/ADR-RES ovarian = tested on: NCI/ADR-RES ovarian
UO-31 renal = tested on: UO-31 renal
SK-OV-3 ovarian = tested on: SK-OV-3 ovarian
COLO 205 colon = tested on: COLO 205 colon
OVCAR-8 ovarian = tested on: OVCAR-8 ovarian
HCC-2998 colon = tested on: HCC-2998 colon
MALME-3M melanoma = tested on: MALME-3M melanoma
HCT-116 colon = tested on: HCT-116 colon
OVCAR-5 ovarian = tested on: OVCAR-5 ovarian
M14 melanoma = tested on: M14 melanoma
HS 578T breast = tested on: HS 578T breast
A549 NSCLC = tested on: A549 NSCLC
786-0 renal = tested on: 786-0 renal
U251 CNS = tested on: U251 CNS
HOP-92 NSCLC = tested on: HOP-92 NSCLC
TK-10 renal = tested on: TK-10 renal
SK-MEL-5 melanoma = tested on: SK-MEL-5 melanoma
SF-268 CNS = tested on: SF-268 CNS
SW-620 colon = tested on: SW-620 colon
DU-145 prostate = tested on: DU-145 prostate
NCI-H226 lung = tested on: NCI-H226 lung
MCF7 breast = tested on: MCF7 breast
A498 renal = tested on: A498 renal
SNB-75 CNS = tested on: SNB-75 CNS
ACHN renal = tested on: ACHN renal
SNB-19 CNS = tested on: SNB-19 CNS
RPMI-8226 leukemia = tested on: RPMI-8226 leukemia
SF-539 CNS = tested on: SF-539 CNS
CCRF-CEM leukemia = tested on: CCRF-CEM leukemia
EKVX NSCLC = tested on: EKVX NSCLC
HCT-15 colon = tested on: HCT-15 colon
HOP-62 NSCLC = tested on: HOP-62 NSCLC
OVCAR-3 ovarian = tested on: OVCAR-3 ovarian
MOLT-4 leukemia = tested on: MOLT-4 leukemia
SR leukemia = tested on: SR leukemia
MDA-MB-231 breast = tested on: MDA-MB-231 breast
SK-MEL-2 melanoma = tested on: SK-MEL-2 melanoma
SK-MEL-28 melanoma = tested on: SK-MEL-28 melanoma
OVCAR-4 ovarian = tested on: OVCAR-4 ovarian
T-47D breast = tested on: T-47D breast
LOX IMVI melanoma = tested on: LOX IMVI melanoma
K-562 leukemia = tested on: K-562 leukemia
NCI-H23 lung = tested on: NCI-H23 lung
IGROV1 ovarian = tested on: IGROV1 ovarian
UACC-62 melanoma = tested on: UACC-62 melanoma
NCI-H522 lung = tested on: NCI-H522 lung
SF-295 CNS = tested on: SF-295 CNS
PC-3 prostate = tested on: PC-3 prostate
NCI-H460 lung = tested on: NCI-H460 lung
CAKI-1 renal = tested on: CAKI-1 renal
BT-549 breast = tested on: BT-549 breast
RXF 393 renal = tested on: RXF 393 renal
HT29 colon = tested on: HT29 colon
HL-60(TB) leukemia = tested on: HL-60(TB) leukemia
UACC-257 melanoma = tested on: UACC-257 melanoma
KM12 colon = tested on: KM12 colon

COC(=O)c1c2c(c(C)[n+]([O-])c1C)C(=O)C=C(NCc1ccc(Cl)cc1)C2=O
GI50 (MDA-MB-435): 89.5 nM | TGI (MDA-MB-435): 229 nM | GI50 (SN12C renal): 309 nM | TGI (SN12C renal): 1240 nM | GI50 (NCI/ADR-RES ovarian): 310 nM | TGI (NCI/ADR-RES ovarian): 3220 nM | GI50 (UO-31 renal): 1160 nM | TGI (UO-31 renal): 2660 nM | GI50 (SK-OV-3 ovarian): 1850 nM | TGI (SK-OV-3 ovarian): 4640 nM | GI50 (COLO 205 colon): 278 nM | TGI (COLO 205 colon): 963 nM | GI50 (OVCAR-8 ovarian): 296 nM | TGI (OVCAR-8 ovarian): 1440 nM | GI50 (HCC-2998 colon): 354 nM | TGI (HCC-2998 colon): 1550 nM | GI50 (MALME-3M melanoma): 157 nM | TGI (MALME-3M melanoma): 381 nM | GI50 (HCT-116 colon): 249 nM | TGI (HCT-116 colon): 1050 nM | GI50 (OVCAR-5 ovarian): 1290 nM | TGI (OVCAR-5 ovarian): 2780 nM | GI50 (M14 melanoma): 202 nM | TGI (M14 melanoma): 1680 nM | GI50 (HS 578T breast): 1770 nM | TGI (HS 578T breast): 6500 nM | GI50 (A549 NSCLC): 543 nM | TGI (A549 NSCLC): 3050 nM | GI50 (786-0 renal): 1320 nM | TGI (786-0 renal): 3570 nM | GI50 (U251 CNS): 598 nM | TGI (U251 CNS): 1880 nM | GI50 (HOP-92 NSCLC): 1930 nM | TGI (HOP-92 NSCLC): 4090 nM | GI50 (TK-10 renal): 2950 nM | TGI (TK-10 renal): 8200 nM | GI50 (SK-MEL-5 melanoma): 176 nM | TGI (SK-MEL-5 melanoma): 337 nM | GI50 (SF-268 CNS): 747 nM | TGI (SF-268 CNS): 2960 nM | GI50 (SW-620 colon): 143 nM | TGI (SW-620 colon): 1370 nM | GI50 (DU-145 prostate): 1090 nM | TGI (DU-145 prostate): 2320 nM | GI50 (NCI-H226 lung): 1430 nM | TGI (NCI-H226 lung): 3520 nM | GI50 (MCF7 breast): 267 nM | TGI (MCF7 breast): 980 nM | GI50 (A498 renal): 1210 nM | TGI (A498 renal): 2470 nM | GI50 (SNB-75 CNS): 1650 nM | TGI (SNB-75 CNS): 3030 nM | GI50 (ACHN renal): 233 nM | TGI (ACHN renal): 1910 nM | GI50 (SNB-19 CNS): 1160 nM | TGI (SNB-19 CNS): 2390 nM | GI50 (RPMI-8226 leukemia): 1240 nM | TGI (RPMI-8226 leukemia): 4700 nM | GI50 (SF-539 CNS): 733 nM | TGI (SF-539 CNS): 1980 nM | GI50 (CCRF-CEM leukemia): 471 nM | TGI (CCRF-CEM leukemia): 4200 nM | GI50 (EKVX NSCLC): 783 nM | TGI (EKVX NSCLC): 2390 nM | GI50 (HCT-15 colon): 183 nM | TGI (HCT-15 colon): 1740 nM | GI50 (HOP-62 NSCLC): 1150 nM | TGI (HOP-62 NSCLC): 3460 nM | GI50 (OVCAR-3 ovarian): 208 nM | TGI (OVCAR-3 ovarian): 625 nM | GI50 (MOLT-4 leukemia): 514 nM | TGI (MOLT-4 leukemia): 2920 nM | GI50 (SR leukemia): 733 nM | TGI (SR leukemia): 7910 nM | GI50 (MDA-MB-231 breast): 286 nM | TGI (MDA-MB-231 breast): 3620 nM | GI50 (SK-MEL-2 melanoma): 1050 nM | TGI (SK-MEL-2 melanoma): 2730 nM | GI50 (SK-MEL-28 melanoma): 733 nM | TGI (SK-MEL-28 melanoma): 2590 nM | GI50 (OVCAR-4 ovarian): 229 nM | TGI (OVCAR-4 ovarian): 1030 nM | GI50 (T-47D breast): 151 nM | TGI (T-47D breast): 1700 nM | GI50 (LOX IMVI melanoma): 53 nM | TGI (LOX IMVI melanoma): 1600 nM | GI50 (K-562 leukemia): 47.8 nM | TGI (K-562 leukemia): 5250 nM | GI50 (NCI-H23 lung): 572 nM | TGI (NCI-H23 lung): 2900 nM | GI50 (IGROV1 ovarian): 346 nM | TGI (IGROV1 ovarian): 1820 nM | GI50 (UACC-62 melanoma): 46 nM | TGI (UACC-62 melanoma): 1020 nM | GI50 (NCI-H522 lung): 508 nM | TGI (NCI-H522 lung): 2040 nM | GI50 (SF-295 CNS): 362 nM | TGI (SF-295 CNS): 1580 nM | GI50 (PC-3 prostate): 289 nM | TGI (PC-3 prostate): 3170 nM | GI50 (NCI-H460 lung): 397 nM | TGI (NCI-H460 lung): 1710 nM | GI50 (CAKI-1 renal): 109 nM | TGI (CAKI-1 renal): 2180 nM | GI50 (BT-549 breast): 1220 nM | TGI (BT-549 breast): 2580 nM | GI50 (RXF 393 renal): 1220 nM | TGI (RXF 393 renal): 2530 nM | GI50 (HT29 colon): 271 nM | TGI (HT29 colon): > 26600 nM | GI50 (HL-60(TB) leukemia): 324 nM | TGI (HL-60(TB) leukemia): 1550 nM | GI50 (UACC-257 melanoma): 234 nM | TGI (UACC-257 melanoma): 868 nM | GI50 (KM12 colon): 127 nM | TGI (KM12 colon): 2000 nM
